The values below come from patent US20210032253A1, “PYRAZOLO[1,5-A][1,3,5]TRIAZINE-2-AMINE DERIVATIVE, PREPARATION METHOD THEREFOR AND MEDICAL USE THEREOF” (JIANGSU HENGRUI MEDICINE CO., LTD., priority 2018, published 2021).

For experiment [1], the target named is T1, adenosine A1 receptor (A1R) (Homo sapiens, UniProt P30542).
T1 construct: expressed in transfected cells; host or cells: CHO-K1
T1 sequence (P30542 1-326): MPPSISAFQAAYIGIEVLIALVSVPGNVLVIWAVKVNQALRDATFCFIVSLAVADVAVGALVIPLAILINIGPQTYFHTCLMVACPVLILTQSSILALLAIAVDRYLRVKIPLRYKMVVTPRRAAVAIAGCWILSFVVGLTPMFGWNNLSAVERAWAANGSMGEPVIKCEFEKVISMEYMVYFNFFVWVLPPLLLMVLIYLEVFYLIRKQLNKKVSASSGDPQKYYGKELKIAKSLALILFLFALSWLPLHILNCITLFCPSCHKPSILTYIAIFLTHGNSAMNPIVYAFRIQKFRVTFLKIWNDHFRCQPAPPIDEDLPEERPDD
Kind of experiment: Inhibition of adenosine A1 receptor cAMP signaling pathway in CHO-K1/A1R cells (HTRF cAMP dynamic 2 kit). Conditions: Table 2; for IC50: CHO-K1/A1R cells, cAMP, 10 μM forskolin, 10 nM CPA; for IC50 ratio (A1R/A2aR): selectivity A1R over A2aR. Format: cell-based. The procedure, abridged: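 CHO-K1 cells stably expressing A1R, in HBSS with 20 mM HEPES, 0.1% BSA, rolipram and adenosine deaminase, were pre-incubated 30 min at RT with compound (0.1–100000 nM final). Cells were then stimulated 30 min with 10 μM forskolin plus 10 nM CPA. Intracellular cAMP was read by HTRF after 1 h detection.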
On the technique in general: Time-resolved FRET reads energy transfer from a long-lived donor to a nearby acceptor.

In experiment [2] the target is T2, adenosine A3 receptor (A3R) (Homo sapiens, UniProt P0DMS8).
T2 construct: expressed in transfected cells; host or cells: CHO-K1
T2 sequence (P0DMS8 1-318): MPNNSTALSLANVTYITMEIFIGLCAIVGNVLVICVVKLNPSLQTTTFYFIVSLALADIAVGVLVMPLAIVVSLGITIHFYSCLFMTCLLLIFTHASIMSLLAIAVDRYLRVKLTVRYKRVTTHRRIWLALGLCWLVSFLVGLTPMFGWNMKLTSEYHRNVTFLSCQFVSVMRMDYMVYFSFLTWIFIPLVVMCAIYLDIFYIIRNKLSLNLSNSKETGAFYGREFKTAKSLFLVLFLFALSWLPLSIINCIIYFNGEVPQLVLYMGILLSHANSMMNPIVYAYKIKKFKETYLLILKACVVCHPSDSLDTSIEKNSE
The experiment in a line: Inhibition of adenosine A3 receptor cAMP signaling pathway in CHO-K1/A3R cells (HTRF cAMP dynamic 2 kit). Format: cell-based. Conditions: Table 3; for IC50: CHO-K1/A3R cells, cAMP, 10 μM forskolin, 5 nM 2Cl-IB-MECA; for IC50 ratio (A3R/A2aR): selectivity A3R over A2aR. The procedure, abridged: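 CHO-K1 cells expressing A3R, in HBSS/HEPES/BSA with rolipram and adenosine deaminase, were preincubated 30 min with compound (0.1–100000 nM final). They were then stimulated 30 min with 10 μM forskolin plus 5 nM 2Cl-IB-MECA at room temperature. cAMP read by HTRF and IC50 calculated.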

Bounds are passed on as bounds.

For orientation: IC50 means the concentration that inhibits the measured activity by half. High values mean a need for much substance, low ones inhibition by little substance. As to `Cc1ccc(-c2nc(N)nc3c(Nc4cccc(CO[C@H]5CCOC5)n4)cnn23)o1` [Example 18, (S)-4-(5-Methylfuran-2-yl)-N^8-(6-(((tetrahydrofuran-3-yl)oxy)methyl)pyridin-2-yl)pyrazolo[1,5-a][1,3,5]triazine-2,8-diamine], in experiment [1], the IC50 worked out at 2540 nM and the “IC50 ratio (A1R/A2aR)” value is given as >10^3. Moreover, in experiment [2], the IC50 worked out at 2200 nM and the “IC50 ratio (A3R/A2aR)” value is >10^3.
Turning to `Cc1ccc(-c2nc(N)nc3c(Oc4cccc(CO[C@H]5CCOC5)n4)cnn23)o1` [Example 19, (S)-4-(5-Methylfuran-2-yl)-8-((6-(((tetrahydrofuran-3-yl)oxy)methyl)pyridin-2-yl)oxy)pyrazolo[1,5-a][1,3,5]triazin-2-amine], in experiment [1], the IC50 stood at 2860 nM and the “IC50 ratio (A1R/A2aR)” value is listed as >10^3. Besides, in experiment [2], the IC50 came to 4790 nM and the “IC50 ratio (A3R/A2aR)” value is recorded as >10^3.
In the case of `Cc1ccc(-c2nc(N)nc3c(Cc4cccc(CO[C@H]5CCOC5)n4)cnn23)o1` [Example 1, (S)-4-(5-Methylfuran-2-yl)-8-((6-(((tetrahydrofuran-3-yl)oxy)methyl)pyridin-2-yl)methyl)pyrazolo[1,5-a][1,3,5]triazin-2-amine], in experiment [1], the IC50 amounted to 1120 nM and the “IC50 ratio (A1R/A2aR)” value is >10^3. Besides, in experiment [2], the half-inhibitory concentration (IC50) was 2060 nM and the “IC50 ratio (A3R/A2aR)” value is listed as >10^3.
